Reference: patent US10597388B2, “Pyridazinone herbicides” (FMC CORPORATION, priority 2014, dated 2020)

Columns and labels:
Type in all cases: in vivo
[1] = system: barnyardgrass (Echinochloa crus-galli); experiment: Test B flooded paddy test; settings: 250 g ai/ha, Flood; visual rating on scale of 0 to 100 where 0 is no effect and 100 is complete control; 13 to 15 d after treatment
Outline: (§1)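 Ratings use a 0-100 visual scale, where 100 is complete control, and compare treated plants with controls after 13 to 15 d of greenhouse growth. Compound went straight into paddy water kept 3 cm over the soil surface, applied to seedlings at the 2-leaf stage.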

rice (Oryza sativa) = experiment: Test B flooded paddy test; settings: 250 g ai/ha, Flood; visual rating on scale of 0 to 100 where 0 is no effect and 100 is complete control; 13 to 15 d after treatment
Outline: as §1

[2] = system: sedge, umbrella (small-flower umbrella sedge, Cyperus difformis); experiment: Test B flooded paddy test; settings: 250 g ai/ha, Flood; visual rating on scale of 0 to 100 where 0 is no effect and 100 is complete control; 13 to 15 d after treatment
Outline: as §1

[3] = system: ducksalad (Heteranthera limosa); experiment: Test B flooded paddy test; settings: 250 g ai/ha, Flood; visual rating on scale of 0 to 100 where 0 is no effect and 100 is complete control; 13 to 15 d after treatment
Outline: as §1

[4] = system: galium (catchweed bedstraw, Galium aparine); experiment: Test A greenhouse herbicide test, postemergence; settings: for Galium plant response rating: 0 to 100 scale, 0 is no effect, 100 is complete control
Outline: (§2)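 Seedlings in a loam soil and sand mix received formulated compound postemergence at the one- to two-leaf stage. Greenhouse holding lasts approximately 10 d, then injury is scored visually relative to untreated plants, 0 meaning no effect and 100 complete control.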

[5] = system: blackgrass (Alopecurus myosuroides); experiment: Test A greenhouse herbicide test, postemergence; settings: for Blackgrass plant response rating: 0 to 100 scale, 0 is no effect, 100 is complete control
Outline: as §2

[6] = system: ryegrass, Italian (Italian ryegrass, Lolium multiflorum); experiment: Test A greenhouse herbicide test, pre- and postemergence
Outline: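 Visual injury ratings, 0 (no effect) to 100 (complete control), versus untreated plants after roughly 10 d in a greenhouse. Compounds, formulated in a surfactant-containing non-phytotoxic solvent, were sprayed on loam–sand soil after sowing (pre) or on one- to two-leaf plants 2–10 cm tall (post).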

[7] = system: galium (catchweed bedstraw, Galium aparine); experiment: Test C greenhouse herbicide test, pre- and postemergence
Outline: (§3)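 Visual 0–100 injury score (100 = complete control) taken against untreated controls after 13–15 d in greenhouse. Test chemicals, formulated in solvent plus surfactant, applied preemergence to seeds in loam–sand soil or postemergence to 1- to 4-leaf plants (2–18 cm).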

[8] = system: oilseed rape (Brassica napus); experiment: as above
Outline: as §3

[9] = system: foxtail, giant (giant foxtail, Setaria faberii); experiment: as above
Outline: as §3

[10] = 125 g ai/ha, 0 to 100 scale where 0 is no effect and 100 is complete control
[11] = 500 g ai/ha, visual rating after approx. 10 d, 0 to 100 scale (0 no effect, 100 complete control)
[12] = Postemergence, 125 g ai/ha, 0 to 100 scale where 0 is no effect and 100 is complete control
[13] = Postemergence, 500 g ai/ha, visual rating after approx. 10 d, 0 to 100 scale (0 no effect, 100 complete control)
[14] = Preemergence, 125 g ai/ha, 0 to 100 scale where 0 is no effect and 100 is complete control
[15] = Preemergence, 500 g ai/ha, 0 to 100 scale where 0 is no effect and 100 is complete control
[16] = Postemergence, 31 g ai/ha, scale 0 to 100 (0 no effect, 100 complete control)
[17] = Postemergence, 62 g ai/ha, 0 to 100 scale (0 no effect, 100 complete control)
[18] = Postemergence, 250 g ai/ha, scale 0 to 100, 0 no effect, 100 complete control, 13 to 15 d
[19] = Preemergence, 31 g ai/ha, scale 0 to 100, 0 is no effect, 100 is complete control
[20] = Preemergence, 62 g ai/ha, scale 0 to 100, 0 is no effect, 100 is complete control
[21] = Preemergence, 125 g ai/ha, scale 0 to 100, 0 is no effect, 100 is complete control
[22] = Preemergence, 250 g ai/ha, scale 0 to 100, 0 no effect, 100 complete control
[23] = postemergence, 125 g ai/ha, scale 0 to 100, 0 no effect, 100 complete control
[24] = Postemergence, 500 g ai/ha, 0 to 100 scale, 0 is no effect, 100 is complete control
[25] = Postemergence, 31 g ai/ha, 0 to 100 scale (0 no effect, 100 complete control)
[26] = Postemergence, 125 g ai/ha, scale 0 to 100, 0 is no effect, 100 is complete control
[27] = postemergence, 62 g ai/ha, scale 0 to 100, 0 no effect, 100 complete control
[28] = 125 g ai/ha, visual rating after approx. 10 d, 0 to 100 scale (0 no effect, 100 complete control)
[29] = Postemergence, 8 g ai/ha, scale 0 to 100 (0 no effect, 100 complete control)
[30] = Postemergence, 16 g ai/ha, scale 0 to 100 (0 no effect, 100 complete control)
[31] = Preemergence, 16 g ai/ha, scale 0 to 100, 0 is no effect, 100 is complete control

Compound: COC(=O)Oc1c(OC)nn(C)c(=O)c1-c1c(C)ccc2ccccc12 [Compound 136]
- Plant response rating, Barnyardgrass [1]: 0
- Plant response rating, Rice (rice (Oryza sativa)): 0
- Plant response rating, Sedge, Umbrella [2]: 0
- Plant response rating, Ducksalad [3]: 0
- Plant response rating, Galium [4, 10]: 100
- Plant response rating, Galium [4, 11]: 100
- Plant response rating, Blackgrass [5, 10]: 60
- Plant response rating, Blackgrass [5, 11]: 90
- Plant response rating, Ryegrass, Italian [6, 12]: 90
- Plant response rating, Ryegrass, Italian [6, 13]: 100
- Ryegrass, Italian plant response rating [6, 14]: 90
- Plant response rating, Ryegrass, Italian [6, 15]: 100
- Plant response rating, Galium [7, 16]: 90
- Galium plant response rating [7, 17]: 90
- Plant response rating, Galium [7, 18]: 95
- Plant response rating, Galium [7, 19]: 90
- Plant response rating, Galium [7, 20]: 98
- Plant response rating, Galium [7, 21]: 100
- Galium plant response rating [7, 22]: 100
- Galium plant response rating [7, 23]: 90
- Plant response rating, Oilseed Rape [8, 16]: 95
- Oilseed Rape plant response rating [8, 17]: 98
- Plant response rating, Oilseed Rape [8, 18]: 98
- Plant response rating, Oilseed Rape [8, 19]: 10
- Plant response rating, Oilseed Rape [8, 20]: 30
- Plant response rating, Oilseed Rape [8, 21]: 90
- Oilseed Rape plant response rating [8, 22]: 100
- Oilseed Rape plant response rating [8, 23]: 98
- Plant response rating, Foxtail, Giant [9, 16]: 35
- Foxtail, Giant plant response rating [9, 17]: 45
- Plant response rating, Foxtail, Giant [9, 18]: 90
- Plant response rating, Foxtail, Giant [9, 19]: 75
- Plant response rating, Foxtail, Giant [9, 20]: 85
- Plant response rating, Foxtail, Giant [9, 21]: 100
- Foxtail, Giant plant response rating [9, 22]: 98
- Foxtail, Giant plant response rating [9, 23]: 70

Compound: Cc1ccc2sc(Br)c(-c3c(O)c(C)nn(C)c3=O)c2c1 [Compound 79]
- Plant response rating, Barnyardgrass [1]: 0
- Plant response rating, Rice (rice (Oryza sativa)): 0
- Plant response rating, Sedge, Umbrella [2]: 0
- Plant response rating, Ducksalad [3]: 0
- Plant response rating, Galium [4, 10]: 90
- Galium plant response rating ([4]; 500 g ai/ha): 90
- Plant response rating, Blackgrass [5, 10]: 70
- Blackgrass plant response rating ([5]; 500 g ai/ha): 80
- Plant response rating, Ryegrass, Italian [6, 12]: 80
- Ryegrass, Italian plant response rating [6, 24]: 90
- Ryegrass, Italian plant response rating [6, 14]: 80
- Plant response rating, Ryegrass, Italian [6, 15]: 100
- Galium plant response rating [7, 25]: 95
- Plant response rating, Galium [7, 26]: 95
- Plant response rating, Galium [7, 18]: 95
- Plant response rating, Galium [7, 19]: 95
- Plant response rating, Galium [7, 20]: 95
- Plant response rating, Galium [7, 21]: 95
- Galium plant response rating [7, 22]: 98
- Galium plant response rating [7, 27]: 95
- Oilseed Rape plant response rating [8, 25]: 20
- Plant response rating, Oilseed Rape [8, 26]: 70
- Plant response rating, Oilseed Rape [8, 18]: 80
- Plant response rating, Oilseed Rape [8, 19]: 0
- Plant response rating, Oilseed Rape [8, 20]: 35
- Plant response rating, Oilseed Rape [8, 21]: 30
- Oilseed Rape plant response rating [8, 22]: 30
- Oilseed Rape plant response rating [8, 27]: 25
- Foxtail, Giant plant response rating [9, 25]: 35
- Plant response rating, Foxtail, Giant [9, 26]: 75
- Plant response rating, Foxtail, Giant [9, 18]: 90
- Plant response rating, Foxtail, Giant [9, 19]: 65
- Plant response rating, Foxtail, Giant [9, 20]: 85
- Plant response rating, Foxtail, Giant [9, 21]: 85
- Foxtail, Giant plant response rating [9, 22]: 95
- Foxtail, Giant plant response rating [9, 27]: 60

Compound: COC(=O)Oc1c(C)nn(C)c(=O)c1-c1ccc(F)c2ccccc12 [Compound 130]
- Plant response rating, Barnyardgrass [1]: 0
- Plant response rating, Rice (rice (Oryza sativa)): 0
- Plant response rating, Sedge, Umbrella [2]: 0
- Plant response rating, Ducksalad [3]: 0
- Plant response rating, Galium [4, 10]: 100
- Plant response rating, Galium [4, 11]: 100
- Plant response rating, Blackgrass [5, 10]: 60
- Plant response rating, Blackgrass [5, 11]: 70
- Plant response rating, Ryegrass, Italian [6, 12]: 100
- Plant response rating, Ryegrass, Italian [6, 13]: 100
- Ryegrass, Italian plant response rating [6, 14]: 100
- Plant response rating, Ryegrass, Italian [6, 15]: 100
- Plant response rating, Galium [7, 16]: 95
- Galium plant response rating [7, 17]: 95
- Plant response rating, Galium [7, 18]: 98
- Galium plant response rating [7, 23]: 95
- Plant response rating, Oilseed Rape [8, 16]: 0
- Oilseed Rape plant response rating [8, 17]: 0
- Plant response rating, Oilseed Rape [8, 18]: 0
- Oilseed Rape plant response rating [8, 23]: 0
- Plant response rating, Foxtail, Giant [9, 16]: 20
- Foxtail, Giant plant response rating [9, 17]: 20
- Plant response rating, Foxtail, Giant [9, 18]: 70
- Foxtail, Giant plant response rating [9, 23]: 40

Compound: Cc1nn(C)c(=O)c(-c2c(C)sc3c(C)cc(Cl)cc23)c1O [Compound 35]
- Plant response rating, Barnyardgrass [1]: 0
- Plant response rating, Rice (rice (Oryza sativa)): 0
- Plant response rating, Sedge, Umbrella [2]: 65
- Plant response rating, Ducksalad [3]: 75
- Plant response rating, Galium [4, 28]: 100
- Galium plant response rating ([4]; 500 g ai/ha): 100
- Plant response rating, Blackgrass [5, 28]: 70
- Blackgrass plant response rating ([5]; 500 g ai/ha): 80
- Plant response rating, Ryegrass, Italian [6, 12]: 80
- Ryegrass, Italian plant response rating [6, 24]: 100
- Ryegrass, Italian plant response rating [6, 14]: 90
- Plant response rating, Ryegrass, Italian ([6]; Preemergence, 500 g ai/ha, 0 to 100 scale, 0 no effect, 100 complete control): 90
- Plant response rating, Galium [7, 29]: 90
- Plant response rating, Galium [7, 30]: 90
- Galium plant response rating [7, 25]: 90
- Plant response rating, Galium [7, 31]: 90
- Plant response rating, Galium [7, 19]: 90
- Plant response rating, Galium [7, 20]: 95
- Galium plant response rating [7, 27]: 95
- Plant response rating, Oilseed Rape [8, 29]: 0
- Plant response rating, Oilseed Rape [8, 30]: 0
- Plant response rating, Oilseed Rape [8, 31]: 5
- Plant response rating, Oilseed Rape [8, 19]: 90
- Plant response rating, Oilseed Rape [8, 20]: 90
- Oilseed Rape plant response rating [8, 27]: 10
- Plant response rating, Foxtail, Giant [9, 29]: 25
- Plant response rating, Foxtail, Giant [9, 30]: 35
- Foxtail, Giant plant response rating [9, 25]: 50
- Plant response rating, Foxtail, Giant ([9]; Preemergence, 8 g ai/ha, scale 0 to 100, 0 is no effect, 100 is complete control): 5
- Plant response rating, Foxtail, Giant [9, 31]: 25
- Plant response rating, Foxtail, Giant [9, 19]: 60
- Plant response rating, Foxtail, Giant [9, 20]: 85
- Foxtail, Giant plant response rating [9, 27]: 75

Compound: CC(=O)Oc1c(Cl)nn(C)c(=O)c1-c1c(C)sc2ccc(Cl)cc12 [Compound 116]
- Plant response rating, Barnyardgrass [1]: 0
- Plant response rating, Rice (rice (Oryza sativa)): 0
- Plant response rating, Sedge, Umbrella [2]: 70
- Plant response rating, Ducksalad [3]: 50
- Plant response rating, Galium [4, 10]: 70
- Plant response rating, Galium [4, 11]: 100
- Plant response rating, Blackgrass [5, 10]: 30
- Plant response rating, Blackgrass [5, 11]: 70
- Plant response rating, Ryegrass, Italian [6, 12]: 90
- Plant response rating, Ryegrass, Italian [6, 13]: 100
- Ryegrass, Italian plant response rating [6, 14]: 80
- Plant response rating, Ryegrass, Italian [6, 15]: 100
- Plant response rating, Galium [7, 19]: 60
- Plant response rating, Galium [7, 20]: 85
- Plant response rating, Galium [7, 21]: 100
- Galium plant response rating [7, 22]: 100
- Plant response rating, Oilseed Rape [8, 19]: 85
- Plant response rating, Oilseed Rape [8, 20]: 80
- Plant response rating, Oilseed Rape [8, 21]: 95
- Oilseed Rape plant response rating [8, 22]: 100
